PMC9322164, “Novel Neuroprotective Potential of Bunchosia armeniaca (Cav.) DC against Lipopolysaccharide Induced Alzheimer’s Disease in Mice” (Plants, 2022)

Columns and labels:
[1] = DPPH radical scavenging assay; conditions: mean ± SD, n = 6
[2] = Ferric reducing antioxidant power (FRAP) assay; conditions: mean ± SD, n = 6
Procedure: Natural products’ ability to reduce metals is regarded as a key marker of their antioxidant properties. Spectroscopically, the quantity of ferric (Fe^3+) complex conversion to ferrous (Fe^2+) form is detected by the color change of the solution based on the compound’s ability for reduction. The increased reduction capability of the studied sample is shown by the higher absorbance of the reaction mixture. FRAP values of B. armeniaca extract and its fractions were recorded in (Table 2) and expressed as EC50 (µg/mL).
The FRAP technique was carried out in microplates with slight modifications as described by. Briefly, a fresh FRAP solution was prepared shortly before the reaction in a 10:1:1 v/v/v ratio, consisting of acetate buffer (300 mM, PH = 3.6), tripyridyltriazine (TPTZ, 10 mM) in HCl (40 mM), and FeCl3 (20 mM), respectively. […] The FRAP test measured the absorbance change generated by electron-donating antioxidants converting a colorless oxidized Fe^+3-TPTZ complex to a blue-colored Fe^+2 molecule in acidic conditions. Data are represented as mean ± SD.
FRAP assay data were determined by Microsoft Excel®. […] AChE inhibition activity was performed in triplicate. […] The difference was considered significant when p < 0.05.

[3] = ABTS cation radical decolorization assay; conditions: mean ± SD, n = 6
[4] = design: method as in earlier work; conditions: previous research ref 5; cited from earlier work
GFAP = experiment: Brain content of GFAP (ELISA) in LPS-induced Alzheimer in mice; assay type: in vivo; conditions: LPS 250 µg/kg/day IP 7 days; compared to normal control
Procedure: (§1) Firstly, mice were anesthetized using an IP injection of ketamine at a dose of 80–100 mg/kg. After they achieved a deep anesthetic state, mice were sacrificed by decapitation. Each mouse’s brain was promptly dissected and washed with phosphate-buffered saline (PBS) to eliminate extra blood. Weighed pieces were homogenized in PBS with the MPW-120 homogenizer, Med Instruments, Poland, to obtain a 20% homogenate, then they were kept overnight at −20 °C. […] The supernatant was removed immediately and assayed for brain contents of NF-κB, IL-1β, CYP2E1, and GFAP. They were determined using an ELISA kit (SunLong Biotec Co., Ltd., Hangzhou, China).
(§2) Standards and samples were added to wells containing immobilized antibodies specific for […] NF-κB, IL-1β, CYP2E1, and GFAP and kept for 30 min of incubation at 37 °C. After washing, horseradish peroxidase-conjugated streptavidin was added to the wells, kept for 30 min of incubation at 37 °C, and then washed for a second time. The wells were filled with tetramethylbenzidine (TMB) substrate solution and kept for 15 min of incubation at 37 °C; a color was produced in proportion to the quantity of NF-κB, IL-1β, CYP2E1, and GFAP bound. A stop solution was added to the wells to terminate the color development, and color intensity was detected at 450 nm after 10 min [130].

IL-1β = experiment: Brain content of IL-1β (ELISA) in LPS-induced Alzheimer in mice; assay type: in vivo; conditions: LPS 250 µg/kg/day IP 7 days; compared to normal control
Procedure: as §1, §2

CYP2E1 = experiment: Brain content of CYP2E1 (ELISA) in LPS-induced Alzheimer in mice; assay type: in vivo; conditions: LPS 250 µg/kg/day IP 7 days; compared to normal control
Procedure: as §1, §2

mice brain = experiment: Histopathological examination of mice brain (H&E); assay type: in vivo; conditions: LPS model, extracts 200 mg/kg/day oral 7 days
Procedure: Autopsy specimens were obtained from mice brains, divided into several groups and preserved in 10% formol saline for a day. Subsequently, rinsing with tap water, dehydration was achieved by alcohol serial dilutions (methyl, ethyl, and absolute ethyl alcohol). Samples were cleaned with xylene and immersed in paraffin for a day at 56 °C in a hot air oven. Paraffin beeswax tissue blocks were made using a sledge microtome and sectioned at a thickness of […].

[5] = test system: LPS-induced Alzheimer in mice; experiment: Y maze spontaneous alternation test in LPS-induced Alzheimer in mice; assay type: in vivo; conditions: LPS 250 µg/kg/day IP 7 days; compared to normal control
Procedure: Fifty male Swiss mice weighing 20–35 gm were chosen for the investigation. They were held in filter-top plastic cages under hygienic conditions, with 12-h light and 12-hour dark cycles and 50% humidity at 28 °C. Unnecessary disturbance of animals was avoided. Squeezing, pressure, and abrasive maneuvers were avoided when dealing with the animals. Throughout the experiment, mice were fed a standard pellet meal, and water was allowed ad libitum. The laboratory animal experiments were conducted to comply with the recommendations of the Guide for the Care and Use of Laboratory Animals of the National Research Centre, Egypt, and the National Institutes of Health (NIH No. 85:23 revised 1985) in accordance with the guidelines provided by the CPCSEA and the World Medical Association Declaration of Helsinki on Ethical Principles for Studies Involving Experimental Animals. […]
Y maze spontaneous alternation test was performed 24 h after the last treatment dose, according to [126]. […] One day later, the mouse was allowed eight minutes of movements while its motion was recorded. The letter of the mouse was recorded down every time it entered an arm with all of its limbs inside. […] The alternation percentage was determined using the formula below: Number of alternations/(Total arm entries −2) ∗ 100

NF-κB = experiment: Brain content of NF-κB (ELISA) in LPS-induced Alzheimer in mice; assay type: in vivo; conditions: LPS 250 µg/kg/day IP 7 days; compared to normal control
Procedure: as §1, §2

Compound: Cc1c(C)c2c(c(C)c1O)CCC(C)(C(=O)O)O2 (centres unmarked) [Trolox]
- DPPH Assay IC50 [1]: 24.42 ± 0.87 µg/mL
- FRAP Assay EC50 [2]: 96.97 ± 2.73 µg/mL
- ABTS Assay IC50 [3]: 22.56 ± 0.78 µg/mL

Compound: O=C(O)c1cc(O)c(O)c(O)c1 [gallic acid]
- DPPH IC50 [4]: 3.6 µg/mL

Compound: Lipopolysaccharide [LPS]
- elevation of GFAP brain expression (GFAP): 276%
- increase of IL-1β in the brain (IL-1β): 193%
- elevation of CYP2E1 brain content (CYP2E1): 235%
- histopathology of cerebellum (mice brain): normal histological findings
- histopathology of cerebral cortex (mice brain): nuclear pyknosis and neuronal degeneration with focal gliosis
- histopathology of fascia dentata and hilus in the hippocampus (mice brain): nuclear pyknosis with degeneration
- histopathology of hippocampus subiculum (mice brain): nuclear pyknosis and degeneration in some neurons
- histopathology of striatum (mice brain): multiple focal eosinophilic plagues formation
- decrease of Y-maze alteration [5]: 58%
- increase of NF-κB in the brain (NF-κB): 309%
